Where two headings read alike, the source gives them in different places.
Columns and labels:
[1] = target: MLCK (MLCK2) (Homo sapiens, UniProt Q32MK0); experiment: biochemical; conditions: read-out: % inhibition mean (Lanthascreen)
[2] = target: T1, CAMK1 (CaMK1) (Homo sapiens, UniProt Q14012); experiment: biochemical; conditions: read-out: % inhibition mean (Adapta)
[3] = target: T1, CAMK1 (CaMK1); experiment: Adapta universal kinase assay; type: biochemical
[4] = target: STK3 (MST2) (Homo sapiens, UniProt Q13188); experiment: biochemical; conditions: read-out: % inhibition mean (Z'Lyte)
[5] = target: EGFR (ErbB1) (Homo sapiens, UniProt P00533); experiment: biochemical; conditions: read-out: % inhibition mean (Z'Lyte)
[6] = target: CAMK2D (CaMKII delta) (Homo sapiens, UniProt Q13557); experiment: biochemical; conditions: read-out: % inhibition mean (Z'Lyte)
[7] = target: MAPK12 (p38 gamma) (Homo sapiens, UniProt P53778); experiment: biochemical; conditions: read-out: % inhibition mean (Z'Lyte)
[8] = target: PRKACA (PKA) (Homo sapiens, UniProt P17612); experiment: biochemical; conditions: read-out: % inhibition mean (Z'Lyte)
[9] = target: ROCK1 (Homo sapiens, UniProt Q13464); experiment: biochemical; conditions: read-out: % inhibition mean (Z'Lyte)
[10] = target: PRKCN (PKD3) (Homo sapiens, UniProt O94806); experiment: biochemical; conditions: read-out: % inhibition mean (Z'Lyte)
[11] = target: FGFR2 N549H (Homo sapiens, UniProt P21802, N549H); experiment: biochemical; conditions: read-out: % inhibition mean (Z'Lyte)
[12] = target: CSNK1A1 (CK1 alpha 1) (Homo sapiens, UniProt P48729); experiment: biochemical; conditions: read-out: % inhibition mean (Z'Lyte)
[13] = target: ROS1 (Homo sapiens, UniProt P08922); experiment: biochemical; conditions: read-out: % inhibition mean (Z'Lyte)
[14] = target: AMPK (A2/B1/G2) (Homo sapiens, UniProt P54646); experiment: biochemical; conditions: read-out: % inhibition mean (Z'Lyte)
[15] = target: PASK (Homo sapiens, UniProt Q96RG2); experiment: biochemical; conditions: read-out: % inhibition mean (Z'Lyte)
[16] = target: CLK1 (Homo sapiens, UniProt P49759); experiment: biochemical; conditions: read-out: % inhibition mean (Z'Lyte)
[17] = target: PDK1 (Homo sapiens, UniProt O15530); experiment: biochemical
[18] = target: MELK (Homo sapiens, UniProt Q14680); experiment: ThermoFisher kinase profiling; type: biochemical; conditions: read-out: % inhibition at 1 μM
[19] = target: LTK (TYK1) (Homo sapiens, UniProt P29376); experiment: biochemical; conditions: read-out: % inhibition mean (Z'Lyte)
[20] = target: DYRK1B (Homo sapiens, UniProt Q9Y463); experiment: biochemical; conditions: read-out: % inhibition mean (Z'Lyte)
[21] = target: PL^pro (Severe acute respiratory syndrome coronavirus 2, UniProt P0DTD1); experiment: FRET peptide cleavage assay; type: biochemical

Chain of PDK1 (O15530 whole entry): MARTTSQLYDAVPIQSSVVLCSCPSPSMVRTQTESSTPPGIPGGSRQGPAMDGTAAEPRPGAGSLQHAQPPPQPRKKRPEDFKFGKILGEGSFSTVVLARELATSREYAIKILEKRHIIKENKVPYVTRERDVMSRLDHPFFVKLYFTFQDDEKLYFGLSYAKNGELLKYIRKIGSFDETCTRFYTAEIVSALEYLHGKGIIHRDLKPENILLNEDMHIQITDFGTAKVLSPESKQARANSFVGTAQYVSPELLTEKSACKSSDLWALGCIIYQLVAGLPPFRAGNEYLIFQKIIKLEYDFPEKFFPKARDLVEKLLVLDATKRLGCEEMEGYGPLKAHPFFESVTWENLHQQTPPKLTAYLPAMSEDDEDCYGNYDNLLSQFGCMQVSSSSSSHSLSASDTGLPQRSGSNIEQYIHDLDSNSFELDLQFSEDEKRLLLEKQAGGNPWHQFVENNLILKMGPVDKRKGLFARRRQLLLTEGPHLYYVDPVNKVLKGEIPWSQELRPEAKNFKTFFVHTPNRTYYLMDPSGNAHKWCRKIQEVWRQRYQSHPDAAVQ
T1 sequence (Q14012 whole entry): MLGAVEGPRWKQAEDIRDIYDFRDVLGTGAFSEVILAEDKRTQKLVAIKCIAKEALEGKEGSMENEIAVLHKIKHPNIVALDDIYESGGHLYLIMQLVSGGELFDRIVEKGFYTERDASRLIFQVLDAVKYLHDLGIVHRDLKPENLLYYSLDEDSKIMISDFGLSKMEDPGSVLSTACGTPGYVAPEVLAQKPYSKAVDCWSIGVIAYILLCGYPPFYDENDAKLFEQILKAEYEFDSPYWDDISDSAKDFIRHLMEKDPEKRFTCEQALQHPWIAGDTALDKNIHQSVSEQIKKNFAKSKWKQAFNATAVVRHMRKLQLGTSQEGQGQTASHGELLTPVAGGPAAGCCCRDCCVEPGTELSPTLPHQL
Chain of CSNK1A1 (CK1 alpha 1) (P48729 whole entry): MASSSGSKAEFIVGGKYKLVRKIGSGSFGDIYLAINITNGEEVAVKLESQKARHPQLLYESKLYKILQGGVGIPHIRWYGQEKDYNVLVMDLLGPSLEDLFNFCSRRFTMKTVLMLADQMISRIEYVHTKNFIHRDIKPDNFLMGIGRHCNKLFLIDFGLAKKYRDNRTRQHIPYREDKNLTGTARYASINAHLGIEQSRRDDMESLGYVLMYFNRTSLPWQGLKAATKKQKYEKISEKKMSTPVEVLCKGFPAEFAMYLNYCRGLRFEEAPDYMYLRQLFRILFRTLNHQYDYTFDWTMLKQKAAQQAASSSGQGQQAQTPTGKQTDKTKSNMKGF
Chain of CAMK2D (CaMKII delta) (Q13557 whole entry): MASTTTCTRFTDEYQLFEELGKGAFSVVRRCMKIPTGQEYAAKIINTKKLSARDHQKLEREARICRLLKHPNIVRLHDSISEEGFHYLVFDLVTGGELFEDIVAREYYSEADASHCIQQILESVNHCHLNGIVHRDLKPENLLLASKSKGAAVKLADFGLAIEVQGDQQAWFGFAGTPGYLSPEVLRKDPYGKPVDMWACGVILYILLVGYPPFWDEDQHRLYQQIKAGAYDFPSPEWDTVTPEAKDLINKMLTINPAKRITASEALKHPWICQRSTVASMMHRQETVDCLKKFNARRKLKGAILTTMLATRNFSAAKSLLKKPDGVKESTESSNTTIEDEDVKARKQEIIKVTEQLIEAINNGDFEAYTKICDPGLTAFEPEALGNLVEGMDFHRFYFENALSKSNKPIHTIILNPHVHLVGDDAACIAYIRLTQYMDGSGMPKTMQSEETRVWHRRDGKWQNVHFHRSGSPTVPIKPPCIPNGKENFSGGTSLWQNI
Chain of MELK (Q14680 whole entry): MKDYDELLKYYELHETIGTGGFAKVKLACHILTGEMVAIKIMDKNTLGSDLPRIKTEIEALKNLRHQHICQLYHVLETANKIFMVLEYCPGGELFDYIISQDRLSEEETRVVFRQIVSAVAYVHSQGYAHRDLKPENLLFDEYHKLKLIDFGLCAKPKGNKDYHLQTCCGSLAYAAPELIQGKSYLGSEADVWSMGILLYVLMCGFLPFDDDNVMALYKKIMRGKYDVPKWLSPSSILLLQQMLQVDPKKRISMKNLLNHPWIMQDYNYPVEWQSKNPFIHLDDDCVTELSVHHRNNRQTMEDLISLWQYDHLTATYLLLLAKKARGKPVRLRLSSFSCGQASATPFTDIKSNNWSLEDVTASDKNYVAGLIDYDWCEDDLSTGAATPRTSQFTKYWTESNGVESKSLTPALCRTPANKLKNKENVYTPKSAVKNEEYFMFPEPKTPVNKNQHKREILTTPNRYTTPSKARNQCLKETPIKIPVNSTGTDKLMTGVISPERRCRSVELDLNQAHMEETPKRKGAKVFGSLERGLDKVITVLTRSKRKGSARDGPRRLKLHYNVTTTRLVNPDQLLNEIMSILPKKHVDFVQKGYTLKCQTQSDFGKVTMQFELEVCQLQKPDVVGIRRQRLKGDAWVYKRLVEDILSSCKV
Chain of AMPK (A2/B1/G2) (P54646 whole entry): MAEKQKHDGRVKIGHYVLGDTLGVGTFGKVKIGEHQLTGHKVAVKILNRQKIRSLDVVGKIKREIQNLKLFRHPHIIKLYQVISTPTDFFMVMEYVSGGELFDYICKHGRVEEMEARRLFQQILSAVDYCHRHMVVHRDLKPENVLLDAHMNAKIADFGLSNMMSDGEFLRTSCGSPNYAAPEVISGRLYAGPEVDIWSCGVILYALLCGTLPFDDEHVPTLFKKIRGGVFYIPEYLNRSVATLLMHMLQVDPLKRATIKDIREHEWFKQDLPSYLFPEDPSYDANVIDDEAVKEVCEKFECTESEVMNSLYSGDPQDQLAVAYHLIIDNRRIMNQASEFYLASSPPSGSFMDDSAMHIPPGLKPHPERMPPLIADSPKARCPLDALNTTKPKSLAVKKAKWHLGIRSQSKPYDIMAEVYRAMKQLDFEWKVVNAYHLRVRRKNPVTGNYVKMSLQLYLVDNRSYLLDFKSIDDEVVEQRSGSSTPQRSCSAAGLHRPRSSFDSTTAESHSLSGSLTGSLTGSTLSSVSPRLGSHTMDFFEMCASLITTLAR
Chain of AMPK (A2/B1/G2) (Q9UGJ0 whole entry partner): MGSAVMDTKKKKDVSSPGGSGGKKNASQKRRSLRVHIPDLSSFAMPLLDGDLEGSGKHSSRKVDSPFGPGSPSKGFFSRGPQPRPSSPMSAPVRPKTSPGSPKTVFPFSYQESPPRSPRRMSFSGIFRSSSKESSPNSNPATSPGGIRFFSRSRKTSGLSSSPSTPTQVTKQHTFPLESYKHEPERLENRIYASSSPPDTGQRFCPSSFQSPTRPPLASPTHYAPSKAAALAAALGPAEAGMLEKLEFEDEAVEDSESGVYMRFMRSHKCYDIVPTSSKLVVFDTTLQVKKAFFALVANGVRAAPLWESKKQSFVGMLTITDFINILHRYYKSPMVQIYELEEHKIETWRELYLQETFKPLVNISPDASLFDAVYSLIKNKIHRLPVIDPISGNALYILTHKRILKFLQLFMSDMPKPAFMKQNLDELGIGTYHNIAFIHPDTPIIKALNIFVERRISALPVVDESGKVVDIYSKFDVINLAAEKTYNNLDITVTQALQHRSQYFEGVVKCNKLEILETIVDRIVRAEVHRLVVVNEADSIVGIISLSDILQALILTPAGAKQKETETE
Chain of AMPK (A2/B1/G2) (Q9Y478 whole entry partner): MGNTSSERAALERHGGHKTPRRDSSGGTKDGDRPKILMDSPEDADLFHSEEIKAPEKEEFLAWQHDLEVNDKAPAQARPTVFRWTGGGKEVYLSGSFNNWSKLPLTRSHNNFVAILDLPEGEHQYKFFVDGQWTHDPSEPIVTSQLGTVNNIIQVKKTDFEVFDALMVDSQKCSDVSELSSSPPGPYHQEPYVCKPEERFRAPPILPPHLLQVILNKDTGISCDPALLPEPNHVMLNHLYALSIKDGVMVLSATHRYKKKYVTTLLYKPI
Chain of MAPK12 (p38 gamma) (P53778 whole entry): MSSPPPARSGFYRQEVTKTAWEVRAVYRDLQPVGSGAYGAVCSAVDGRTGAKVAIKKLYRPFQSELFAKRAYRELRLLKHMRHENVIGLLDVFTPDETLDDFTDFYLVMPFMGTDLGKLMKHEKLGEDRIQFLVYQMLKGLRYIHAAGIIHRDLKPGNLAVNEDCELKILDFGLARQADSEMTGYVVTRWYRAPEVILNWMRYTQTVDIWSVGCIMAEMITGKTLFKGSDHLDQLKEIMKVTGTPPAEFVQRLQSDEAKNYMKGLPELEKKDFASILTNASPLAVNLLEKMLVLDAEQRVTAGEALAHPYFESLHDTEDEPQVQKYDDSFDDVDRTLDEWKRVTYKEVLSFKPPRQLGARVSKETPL
Chain of STK3 (MST2) (Q13188 whole entry): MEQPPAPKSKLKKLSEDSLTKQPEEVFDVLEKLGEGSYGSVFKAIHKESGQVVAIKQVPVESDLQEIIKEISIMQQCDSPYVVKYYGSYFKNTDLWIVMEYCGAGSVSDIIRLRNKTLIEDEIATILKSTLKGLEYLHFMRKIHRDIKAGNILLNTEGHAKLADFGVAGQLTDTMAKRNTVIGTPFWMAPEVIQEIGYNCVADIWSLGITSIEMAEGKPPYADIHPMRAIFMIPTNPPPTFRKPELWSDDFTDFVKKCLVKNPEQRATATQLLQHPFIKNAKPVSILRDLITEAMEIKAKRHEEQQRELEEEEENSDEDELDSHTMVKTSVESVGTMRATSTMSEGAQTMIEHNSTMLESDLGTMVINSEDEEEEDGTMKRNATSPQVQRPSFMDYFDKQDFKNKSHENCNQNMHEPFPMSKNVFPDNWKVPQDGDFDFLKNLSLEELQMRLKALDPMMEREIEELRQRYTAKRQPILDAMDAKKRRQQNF

SMILES: COc1ccc2nc3cc(Cl)ccc3c(Nc3cc(CN4CCCC4)c(O)c(CN4CCCC4)c3)c2n1 [Pyronaridine, 4-[(7-Chloro-2-methoxybenzo[b][1,5]naphthyridin-10-yl)amino]-2,6-bis(1-pyrrolidinylmethyl)phenol phosphate (1:4)]
- inhibition at 1 µM [1]: -6%
- inhibition at 1 µM [2]: 35%
- IC50 [3]: 2400 nM
- inhibition at 1 µM [4]: -2%
- inhibition at 1 µM [5]: -5%
- inhibition at 1 µM [6]: -5%
- inhibition at 1 µM [7]: 7%
- inhibition at 1 µM [8]: 1%
- inhibition at 1 µM [9]: 2%
- inhibition at 1 µM [10]: 8%
- inhibition at 1 µM [11]: 2%
- inhibition at 1 µM [12]: 5%
- inhibition at 1 µM [13]: -6%
- inhibition at 1 µM [14]: 1%
- inhibition at 1 µM [15]: -4%
- inhibition at 1 µM [16]: -1%
- inhibition at 1 µM ([17]; read-out: % inhibition mean (Z'Lyte)): 0%
- inhibition at 1 µM ([17]; read-out: % inhibition mean (Z'Lyte), direct format): 7%
- inhibition at 1 µM [18]: 31%
- inhibition at 1 µM [19]: -1%
- inhibition at 1 µM [20]: 1%
- IC50 [21]: 1860 ± 580 nM

Reference: article doi:10.1101/2021.09.30.462449v1 (biorxiv, 2021)
